One data set relates to FaDu cells. Kind of data set: Clonogenic assay (colony formation), FaDu. Type of data set: cell-based, human. Particulars: for Relative clonogenic survival: 48 h exposure, untreated control = 1. The protocol: Optimization of concentration of prodrugs and controls / clonogenic assay The clonogenic survival assay is a classical approach to monitor radioresponse and drug- induced radiosensitization in cancer cells. We therefore initially determined whether the supposedly non -toxic drug concentrations defined for combinatorial treatment testing affect single cell colony formation capacity. For this pu rpose, exponentially growing SAS and FaDu cells were dissociated, single cell suspensions were prepared in standard DMEM and seeded in 6 -well plates at […]
defined low density (150-300 cells in 1 ml per well). After 8 h of incubation to allow cell adherence, 50% of the supernatant was exchanged by media containing the respective prodrugs at 2x concentration and exposed for 48 h. Treatment was then terminated by medium removal, and cells were allowed to grow for a period of ≥5-6 cell divisions estimated from the cell line-specific doubling times of the respective untreated controls (~7 days for SAS and ~10 days for FaDu cells). Control cells were always handled in parallel to the treated cells and thus exposed to the corresponding DMSO concentration(s). After the defined growth intervals, cells were fixed, stained and colonies of >50 cells were manually counted at low magnification to calculate plating efficiencies as the number of counted colonies relative to the number of seeded cells. Drug effect on clonogenic survival was then estimated by normalizing the colony formation of control cells to 1 (Table S9). […]

The test system of a further data set is human fibroblasts (HF). Put plainly: Cytotoxicity MTT assay, human fibroblasts. The data set is classed as cell-based. Particulars: read-out: 50% cell survival (EC50). The protocol: Study of synergy of prodrugs with radiotherapy for SAS and FaDu cells
Optimization of concentration of prodrugs and controls / MTT assay
The MTT assay was also applied to assess the impact of various drugs (0.01-100 µM) on the viability of the two human head and neck squamous carcinoma cell (HNSCC) lines SAS and FaDu as well as retinal pigment epithelial ARPE-19 cells and human fibroblasts (HF). Cells were seeded into 96-well plates at concentrations of 4000 and 2000 cells per […]
h before exposure to the drugs. All drug dilutions were prepared from 20 mM stock solutions in DMSO. The final DMSO concentration was set to 0.5% in all sample s including control. After completion of the treatment, the wells were processed according to the routine MTT protocol as described above; the formazan absorbance was then measured on a Biotek Epoch Microplate Spectrophotometer at 590 nm and corrected for the background signal at 620 nm. N≥3 independent experiments were performed for each drug candidate, cell type and treatment interval. Cell survival was recorded as function of the drug concentration, and dose-response curves were fitted with the Boltzmann equation where appropriate. We calculated the half-maximal response (EC50) as well as the EC20 (80% survival) according to the line curve (see Tables S6-S8). EC20-values were used as a basis to select the compound-specific non-toxic drug concentrations for combination with radiotherapy.

Data set [1] can be described thus: Prodrug-induced generation of ROS in cell free settings (DCFH/H2O2). Particulars: for ROS Release Efficacy: relative acceleration of the rate of DCFH fluorescence increase with H2O2, pH 7.4, FeSO4 = 1.0. The text has this: As previously reported, the NAAF-prodrugs react with ROS like H2O2, first leading to the cleavage of the B-C-bond with the formation of the phenol derivatives (product 2c-1, Figure S49, SI). The latter compounds exist in equilibrium with the corresponding phenolates. The phenolates undergo the spontaneous 1,6-elimination of para-quinone methide (QM) followed by the release of CO2 with the formation of the N-alkylaminoferrocene NAAF drugs (product 2c-2, Figure S46, SI). By using electrospray ionization mass spectrometry (ESI–MS), we confirmed for one representative prodrug 2c that it reacts with H2O2 in cell free settings according to this common mechanism (ESI-MS, Figures S46–S48, SI). The NAAF is further oxidized by H2O2 or molecular oxygen with the generation of drug NAAF^+ and highly toxic HO• or/and O2^•−. Finally, the NAAF^+ is reduced by glutathione (GSH), thereby closing the catalytic cycle, in which the NAAF acts as a catalyst. We evaluated the formation of HO• or/and O2^•− by using 2′,7′-dichlorodihydrofluorescein (DCFH) as a probe (Table 1, Figure S49, SI). This probe is oxidized to the fluorescent product 2′,7′-dichlorofluorescein (DCF) in the presence of HO• or/and O2^•−. […] The lower activity of 2c and 2d correlates with their higher lipophilicity and their correspondingly higher propensity to form aggregates in aqueous solution (Figure S45, SI).
Prodrug-induced generation of ROS in cell free settings
2',7'-Dichlorodihydrofluorescein diacetate (DCFH-DA, 4.9 mg) was dissolved in DMF (100 μL) and mixed with aqueous NaOH (0.1 M, 900 μL). The resulting mixture was incubated for 30 min at 22 °C in the dark to obtain a stock solution of 2',7'-dichlorodihydrofluorescein (DCFH, 10 mM). Next, DCFH (1 µL ) was added to the solution containing MOPS buf fer (100 mM, pH 7.4), N,N,N'N' -e thylenediaminetetraacetic acid (EDTA , 10 mM) and glutathione (GSH , 5 mM) (1 mL, final concentration of DCFH 10 μM). The reaction mixture was heated to 37 °C and H2O2 (1 µL, final concentration 10 mM) was added. The reaction was monitored by fluorescence spectroscopy: λex = 501 nm, λem = 523 nm. After around 5 min, prodrugs (1 mM in DMF, 10 μL) or positive control FeSO4 (1 mM in water, 10 μL) were added, and the fluorescence monitoring was continued until the fluorescence signal growth was stalled after approximately 100 to 300 min. A representative kinetics of ROS […]
The data are presented in Table 1 as relative acceleration of the rate of the fluorescence increase, where the rate of the fluorescence increase obtained in the presence of positive control FeSO4 was set […]
y = a time + b (a = (dF/dt) , min-1)
Figure S49. Increase of the fluorescence intensity (λex = 501 nm, λem = 523 nm) upon oxidation of DCFH by H2O2 in the presence of FeSO4. Experimental details are provided in the description above. The time point of the FeSO4 addition is indicated with a black […]
(also on this page, place not known: ° C µL) buffer N,N,N'N'-ethylenediaminetetraacetic (EDTA, (GSH, ° C FeSO 4 (λ ex λ em Fluorescence (a.u.) (dF/dt)0, min -1 Addition of)
(1 picture or pasted object on this page, not shown here)

Data set [2] can be described thus: n-octanol/water partition coefficient (logP) by RP-TLC. The data set is classed as physicochemical. The protocol: Determination of n-octanol/water partition coefficients (LogP) […]
mixture of dichloromethane/CH3OH at proper concentrations. Commercially available […]
7.4) (6/4, v/v) was used. The solvent migration distance was around 4.5 cm. The plates […]
and its distance was manually measured. All measurements were done in at least triplicate and average values were used in further calculations. All experiments were performed at ambient temperature (22 ± 2 °C). […]

Where two headings read alike, the source gives them in different places.

One may read the EC50 as the concentration needed to bring the measured effect to its halfway point. `[Fe+2].c1cc[cH-]c1.c1cc[cH-]c1` [compound 6, ferrocene] registered a Relative clonogenic survival in the data set with FaDu cells (25 µM) of 0.99 ± 0.08. In addition, the EC50 in the data set on human fibroblasts (HF) (24h) and in the data set on human fibroblasts (HF) (48h) was over 50 µM each time.

In the case of `CCOC(=O)CCCCCn1cc(CN(C(=O)OCc2ccc(B3OC(C)(C)C(C)(C)O3)cc2)[c-]2cccc2)nn1.[Fe+2].c1cc[cH-]c1` [compound 1], the “ROS Release Efficacy” value in data set [1] was found to be 0.99 ± 0.16. In data set [2], the “logP (Hydrolyzed Prodrug)” value is listed as 2.83 ± 0.07. In addition, the “logP (Prodrug)” value in data set [2] (pH 7.4) was determined as 4.87 ± 0.05.

Regarding `CC1(C)OB(c2ccc(COC(=O)N(Cc3cn(Cc4ccc(Cn5cc(Cc6ccccc6)nn5)cc4)nn3)[c-]3cccc3)cc2)OC1(C)C.[Fe+2].c1cc[cH-]c1` [2c], the Relative clonogenic survival with FaDu cells (10 µM) was determined as 0.86 ± 0.13; with FaDu cells (25 µM), 0.20 ± 0.08. The “growth of colonies reduced to” value with FaDu cells (25 µM) is 20 ± 8%. Further, the “ROS-generating activity, fold lower than that of 2a and 2b” value in data set [1] (cell free DCFH assay) is recorded as ~ 2 fold. For the same molecule, the “ROS Release Efficacy” value in data set [1] is on record as 0.35 ± 0.17. For the same molecule, the EC50 with human fibroblasts (HF) (24h) and with human fibroblasts (HF) (48h) was over 50 µM each time. The “logP (Hydrolyzed Prodrug)” value in data set [2] (n-octanol/water partition coefficient of the hydrolyzed boronic acid (_BA) form of the prodrug named) came out at 3.23 ± 0.11. Besides, the “logP (Prodrug)” value in data set [2] (n-octanol/water partition coefficient of the intact prodrug (or control 2c_c), RP-TLC, MOPS pH 7.4) was determined as 5.37 ± 0.15.

`CC1(C)OB(c2ccc(COC(=O)N(Cc3cccc(CN4CCCCC4)c3)[c-]3cccc3)cc2)OC1(C)C.[Fe+2].c1cc[cH-]c1` [5b]: the Relative clonogenic survival in the data set with FaDu cells (0.5 µM) is 0.71 ± 0.07; in the data set on FaDu cells (1 µM), 0.75 ± 0.11; with FaDu cells (2.5 µM) it was 0.36 ± 0.10. Also, the “colony formation reduced to” value in the data set with FaDu cells (10-fold lower dose than 25 µM) was found to be 36 ± 10%. Also, the half-maximal effective concentration (EC50) with human fibroblasts (HF) (24h) stood at 35.5 ± 14.9 µM; in the data set with human fibroblasts (HF) (48h), 20.8 ± 4.6 µM.
